Results: patent publication US10802012B2, “Optical cytometry to determine cell mass changes in response to a biologically active agent” (The Regents of the University of California, priority 2009, dated 2020)

Assays:
NIH3T3 cells [1] = experiment: Cell morphology in intensity images during cytochalasin treatment; format: cell-based, mouse; conditions: 1 μM, up to 45 minutes
Protocol: (§1) Cells were prepared for measurement as described above. A continuous infusion of fresh media into the sample chamber, warmed to 37 C and pre-saturated with 5%CO2, was maintained at all times. The rate of infusion was 5 μL/min, equivalent to exchanging the entire volume of the test chamber in 20 minutes. Cells were equilibrated under flow for 45 minutes before measurement. Flow was halted during each measurement cycle, which lasted approximately 200 seconds. The first, a media-only measurement was conducted at 1 hour, immediately followed by introduction of cytochalasin B into the infusing media. Initially, the cytochalasin B was dissolved in DMSO and diluted in DMEM to produce a stock concentration 1000× the working concentration (1 μM or 10 μM). At the appropriate time, the stock solution was introduced into the infusion media reservoir to produce the desired final concentration.

fibroblasts [2] = conditions: low doses (0.1-1 μM); cited from earlier work
NIH3T3 cells [3] = experiment: Mechanical imaging interferometry (MII) viscoelastic measurement of cells before and after cytochalasin B; format: cell-based, mouse
Protocol: The population measurements of the NIH 3T3 fibroblasts and the HEK 293T […] were conducted over several consecutive days. Both cell types were cultured at the same time on a series of poly-L-lysine coated 0.20×10 mm round glass coverslips, in 1×DMEM with 10% fetal bovine serum in a laboratory incubator under standard cell culture conditions. Preceding measurement, a single round coverslip containing cells would be removed from the culture dish and quickly placed in the microscope test chamber. Microreflectors would be added to media from the original culture dish, which would then be pipetted slowly onto the cells and the sample chamber sealed. Cells were allowed to equilibrate in the test chamber for 30 minutes before measurement. The average radius of the measured microreflectors was 3.79 μm, and the average applied force was 190 pN. The average cell height was 8.1 μm and the average maximum indentation depth per cell was 660 nm.
The three constants for a viscoelastic solid were determined for each measurement by fitting the time-dependent force-displacement curves of the microreflectors to the following equation (see, e.g. Cheng et al., (2005) Mechanics of Materials 37, 213-226):
[formula] Our measurements assumed Poisson's ratio for the cell, v=0.5. Curves were fitted using the Levenberg-Marquardt non-linear least squares procedure (Origin Labs). The z-statistic was used to compare the log-transformed sample means and determine p values. The Bartlett test was used to confirm homogeneity of the compared sample variances.
To remain within the semi-infinite layer assumptions of this model, we present fits only for observations where the minimum cell thickness at the location of the microreflector was 3 μm or greater. A majority of the measurements fit the model elastic constants E1 and E2 well, having a relative standard error of fit <25%. There was larger uncertainty in the viscosity factor, η, with only 30% of the fits having a relative standard error <25%.
as §1

fibroblasts [4] = conditions: low doses (0.1-1 μM); cited from earlier work; remark: listed apart in the source
fibroblasts [5] = conditions: low doses (0.1-1 μM); cited from earlier work; remark: listed apart in the source
[6] = NIH3T3 cells, 1 μM, matched individual cell basis
[7] = NIH3T3 cells, FIG. 6B, normal force applied for 100 seconds, before vs after treatment

C=C1[C@@H](C)[C@H]2[C@H](Cc3ccccc3)NC(=O)[C@]23OC(=O)/C=C/[C@H](O)CCC[C@@H](C)C/C=C/[C@H]3[C@@H]1O [cytochalasin B]
change in cell morphology (NIH3T3 cells [1]): only a slight change in cell morphology
changes in the morphology of fibroblasts (fibroblasts [2]): does not produce large changes in the morphology
mean of the log-transformed distribution of E2 (delayed elastic constant) after treatment (NIH3T3 cells [3]; NIH3T3 cells (n=30), 1 μM, before treatment 2.30, p=0.04): 2.02
mean of the log-transformed distribution of E1 (instantaneous elastic constant) after treatment (NIH3T3 cells [3]; NIH3T3 cells (n=30), 1 μM, before treatment 3.19, p=0.10): 2.92
mean of the log-transformed viscous constant η after treatment (NIH3T3 cells [3]; NIH3T3 cells (n=30), 1 μM, before treatment 3.39, p=0.47): 3.36
matched individual cells with E1 lower after treatment (NIH3T3 cells [3]; [6]): 10/13
matched individual cells with E2 lower after treatment (NIH3T3 cells [3]; [6]): 7/10
matched individual cells with viscosity η lower after treatment (NIH3T3 cells [3]; [6]): 6/11
change in viscoelastic behavior, force-displacement curve of probe 1 (NIH3T3 cells [3]; [7]): appears to be unchanged
change in viscoelastic behavior, force-displacement curve of probe 4 (NIH3T3 cells [3]; [7]): change in elastic rebound behavior
change in viscoelastic behavior, force-displacement curves of probes 2 and 3 (NIH3T3 cells [3]; [7]): clear decrease in stiffness
elasticity of treated cells (NIH3T3 cells [3]; NIH3T3 cells, low dose (1 μM)): treated cells were less elastic
change in Young's modulus by AFM indentation (fibroblasts [4]): minimal, if any, measurable change in Young's modulus
cell migration (fibroblasts [5]): inhibit cell migration
